2 compounds from patent US20080275226A1, “Medical Use of Paeoniflorin” (priority 2004, published 2008) can be followed below.

For one data set, the system named is permanent MCAO model. The experiment in a line: Permanent focal cerebral ischemia model (permanent MCAO). The class given is in vivo, rat.
The target of data set [1] is T1, A1R (Rattus norvegicus, UniProt P25099).
T1 construct: Synaptic membranes of rat cerebral cortex are employed in the assay; from tissue; host or cells: rat cerebral cortex synaptic membranes
T1 sequence (P25099 1-326): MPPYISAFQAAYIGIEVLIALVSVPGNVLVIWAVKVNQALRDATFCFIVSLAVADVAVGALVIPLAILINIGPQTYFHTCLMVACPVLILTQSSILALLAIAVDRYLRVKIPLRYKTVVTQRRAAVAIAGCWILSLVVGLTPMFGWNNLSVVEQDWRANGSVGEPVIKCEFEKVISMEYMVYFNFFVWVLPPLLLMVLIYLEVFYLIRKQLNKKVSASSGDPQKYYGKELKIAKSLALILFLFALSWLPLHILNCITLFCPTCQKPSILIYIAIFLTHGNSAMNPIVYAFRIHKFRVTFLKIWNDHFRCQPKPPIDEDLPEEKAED
The data set is described as follows: Competitive binding with [3H]-CCPA, rat cerebral cortex synaptic membranes. As to conditions: 0.2 nmol/L [3H]-CCPA; rat cerebral cortex synaptic membrane. How it is done:
(§1) Synaptic membranes of rat cerebral cortex are employed in the assay. After decapitation of the rat, cerebral cortex is separated and homogenized sufficiently in 1:15 (W/V) sucrose solution, after centrifuged, the supernatant is taken and centrifuged again. After discarding the supernatant, the sediment is resuspended in 1:30 (W/V) Tris-HCl buffer (50 mM, PH 7.4), homogenized, washed and then centrifuged, after repeating the wash process 3 times, the sediment is resuspended in 1:5 (W/V) Tris-HCl buffer (50 mM, PH 7.4) again and subpakaged, stored at −80° C. The protein concentration is measured by Bradford method (Bradford M M. A rapid and sensitive method for the quantitation of microgram quantities of proteins utilizing the principle of protein-dye binding. Anal Biochem. 1976; 72: 248-254.). All the above procedures are operated at 4° C.
(§2) The above model is used to evaluate the competitive binding of paeoniflorin with the A1R and A2aR receptor mixed agonist [^3H]-ethyl amide adenosine ([3H]-NECA) and the A1R receptor selective agonist [3H]-CCPA.
(§3) After decapitation of the rat, cerebral cortex was separated immediately, and put it into ice-cold physiological saline. […] The protein concentration was measured by Bradford method. […]

Another data set addresses T2, A2AR (Rattus norvegicus, UniProt P30543).
T2 construct: Synaptic membranes of rat cerebral cortex are employed in the assay; from tissue; host or cells: rat cerebral cortex synaptic membranes
The data set is described as follows: Competitive binding with [3H]-NECA, low-affinity site (two-site fit), rat cerebral cortex synaptic membranes. Conditions: two-site competition fit, site 2; 25 nmol/L [3H]-NECA; rat cerebral cortex synaptic membrane; read-out: EC502, competitive binding with [3H]-NECA. How it is done: as §1, §2, §3

The nature of data set [2]: Blood pressure and heart rate of conscious rat (tail sleeve sensor). The class given is in vivo. Conditions: 10, 40, 160 mg kg^−1 i.v., 5 min to 2 hr after administration. How it is done:
The conscious rats are used as research subject, sensors of tail sleeve are used to transduce the pressure pulse to phototriodes and convert it into corresponding blood pressure and heart rate values. When the rats calm down, their blood pressure and heart rate values are recorded as the base values. Then, physiological saline, various doses of paeoniflorin and reserpine are injected through caudal vein respectively.
The changes of blood pressure and heart rate before the administration (0 min) and after the administration (5 min to 2 hr) are recorded.
The conscious rats were used as research subject, sensor of tail sleeve were used to transduce the pressure pulse to phototriodes and converted it into corresponding blood pressure value and heart rate values. When the rats calmed down, their blood pressure and heart rate value were recorded as the base values. Then, physiological saline, paeoniflorin (10, 40, 160 mg kg^−1) and reserpine were injected through caudal vein respectively.
The changes of blood pressure and heart rate before the administration (0 min) and after the administration (5 min to 2 hr) were recorded.

Data set [3] has as its system mouse PD model induced by MPTP. The experiment in a line: MPTP-induced mouse PD model (pole test, TH staining). It counts as in vivo. As to conditions: 5 mg·kg^−1 s.c. for 11 days, C57B1/6J mice. As for the experimental part:
The mouse PD model induced by 1-methyl-4-phenyl-1,2,3,6-tetrahydro-pyridine (MPTP) is used to test the effect of paeoniflorin on the ability of climbing pole and the deletion of dopamine neuron of substantia nigra of midbrain in the PD model mouse. Male C57B1/6J mice of 20-25 g are used. The climbing pole time of the mice are measured before experiment. The mice are divided into 5 groups according to the climbing pole time and there are 8 mice in each group. Low dose and middle dose paeoniflorin are administered by subcutaneous injection for 11 days continuously, and 1-methyl-4-phenyl-1,2,3,6-tetrahydro-pyridine (MPTP) is injected intraperitoneally (ip) at 2 hours intervals for 4 times on day 8 of the experiment to induce mouse PD model.
The motor activity of the mice are measured by pole test, the mice are put on to the vertical coarse pole of 55 cm long and 8 mm diameter with head downward, and the time that the mice go downward to all the limbs contact the ground is measured (Hamaue N, Minami M, Terado M, Hirafuji M, Endo T, Machida M, Hiroshige T, Ogata A, Tashiro K, Saito H, Parvez S H. Comparative study of the effects of isatin, an endogenous MAO-inhibitor, and selegiline on bradykinesia and dopamine levels in a rat model of Parkinson's disease induced by the Japanese encephalitis virus. Neurotoxicology. 2004 January; 25(1-2):205-13.).
Male C57B1/6J mice of 20-25 g were used. The climbing pole time of the mice was measured before experiment. The mice were divided into 5 groups according to the climbing pole time and there were 8 mice in each group. Paeoniflorin (2.5 mg kg^−1, 5 mg kg^−1) were administered by subcutaneous injection for 11 days continuously, and 1-methyl-4-phenyl-1,2,3,6-tetrahydro-pyridine (MPTP) was injected intraperitoneally (ip) at 2 hours intervals for 4 times on day 8 of the experiment to induce mouse PD model. The administration schedule was as follows:
The mice were put on to the vertical coarse pole of 55 cm long and 8 mm diameter with head downward, and the time that the mice went downward to all the limbs contacted the ground was measured.
The heart was perfused with 4% paraformaldehyde to be pro-fixed, and then the cerebrum was taken out, and post-fixed with 4% formaldehyde solution for 1 week. Coronal sections were performed continuously (section thick […]). Tyrosine hydroxylase (TH) was used as the specific marker of dopamine neuron. The primary antibody was monoclonal mouse TH antibody (1:1000, Sigma), the second antibody was Alexa fluor 488 fluorescence labeled goat anti-mouse (1:1000, Molecular Probes). Photographs were taken under fluorescence microscope (Olympus DP70), and TH positive cells of substantia nigra were counted.

The test system of another data set is transient MCAO rats. The experiment in a line: Transient focal cerebral ischemia model (transient MCAO). As to conditions: transient MCAO rat. The class given is in vivo.
Data set [4] concerns the target T1, A1R. The experiment in a line: Competitive binding with [3H]-NECA, high-affinity site (two-site fit), rat cerebral cortex synaptic membranes. As for the experimental part: as §1, §2, §3

Entries after “also recorded” stand apart in the source; their conditions may differ.

T2 sequence (P30543 whole entry): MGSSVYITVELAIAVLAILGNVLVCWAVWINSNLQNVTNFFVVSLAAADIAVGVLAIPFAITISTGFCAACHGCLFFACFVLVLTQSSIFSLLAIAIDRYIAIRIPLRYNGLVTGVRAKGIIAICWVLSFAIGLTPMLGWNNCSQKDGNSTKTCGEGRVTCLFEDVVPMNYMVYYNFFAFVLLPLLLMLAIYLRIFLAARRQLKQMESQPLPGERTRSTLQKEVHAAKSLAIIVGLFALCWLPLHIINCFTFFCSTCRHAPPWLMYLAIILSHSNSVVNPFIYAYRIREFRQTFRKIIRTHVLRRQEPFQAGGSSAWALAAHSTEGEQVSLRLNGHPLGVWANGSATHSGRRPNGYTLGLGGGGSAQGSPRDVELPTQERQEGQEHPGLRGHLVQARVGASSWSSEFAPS

With `CCCn1c(=O)c2[nH]c(C3CCCC3)nc2n(CCC)c1=O` [DPCPX], in the data set on permanent MCAO model (DPCPX s.c. 15 min before ischemia + paeoniflorin 10 mg·kg^−1 s.c.), the “effect of DPCPX on the protection by paeoniflorin” value is on record as “this effect can be antagonized; also recorded: block the protection of paeoniflorin; also recorded: this effect could be inhibited”.

As to “β-D-Glucopyranoside,56-[(benzoyloxy)methyl]tetrahydro-5-hydroxy-2-methyl-2,5-methano-1H-3,4-dioxacyclobuta[cd]Pentalen-1a(2H)-yl,[lar-claα,2β,3aα,5aα,5bα]] [paeoniflorin]”, the “injury of cerebral subcortical nucleus and cerebral cortex caused by ischemia, dose dependence” value in the data set with permanent MCAO model (2.5, 5, 10 mg·kg^−1 s.c., TTC staining) is “decreases the injury of cerebral subcortical nucleus and cerebral cortex caused by ischemia dose-dependently; also recorded: dose-dependently decreased the defect”. Also, the EC50 at A1R [1] worked out at 19.8 nM; at A2AR, 5000 nM; on A1R [4] (two-site competition fit, site 1, 25 nmol/L [3H]-NECA, rat cerebral cortex synaptic membrane, read-out: EC501, competitive binding with [3H]-NECA) it was 13.9 nM. Further, the “blood pressure of conscious rats” value in data set [2] is “does not affect”; in data set [2] (listed as Paeoniflorin) it was “did not affect”. The “heart rate of conscious rats” value in data set [2] was “does not affect”; in data set [2] (listed as Paeoniflorin), “did not affect”. Besides, the “deletion of dopaminergic neuron induced by MPTP (TH staining, substantia nigra)” value in data set [3] is “antagonize the deletion of dopaminergic neuron”; in data set [3] (listed as Paeoniflorin), “significantly antagonized”. Also, the entries for the “motor dysfunction (bradykinesia) caused by MPTP, pole test” value in data set [3] and in data set [3] (listed as Paeoniflorin) were “significantly improve the motor dysfunction” and “significantly antagonized”, respectively. Besides, in the data set on transient MCAO rats (5 mg·kg^−1 s.c. at 15 min and 6 h after ischemia), the “neurological symptom (neurological defect score)” value is recorded as “improves the neurological symptom; also recorded: obviously improved the neurological symptom”. Further, the “injury of cerebral subcortical nucleus and cerebral cortex caused by ischemia” value in the data set on transient MCAO rats (5 mg·kg^−1 s.c., TTC staining) is listed as “significantly decreases the injury; also recorded: significantly decreased the defect”. Besides, at A1R [4] (A1R over A2AR, [3H]-NECA two-site fit), the “selectivity EC502/EC501” value is given as 360 times.
